Experimental data taken from PMC4347201, “The jasmonate-responsive GTR1 transporter is required for gibberellin-mediated stamen development in Arabidopsis” (Nature Communications, 2015).

Assays:
GTR2/NPF2.11 = target: T1, GTR2/NPF2.11 (Arabidopsis thaliana, UniProt Q9LV10); test: uptake into Xenopus oocytes, UPLC/TOFMS; format: cell-based; conditions: pH 5, 24 h uptake, kulori-based buffer
T1 construct: forward primer starts ATGGAGAGAAAGCCTCTTG
T1 sequence (Q9LV10 1-616): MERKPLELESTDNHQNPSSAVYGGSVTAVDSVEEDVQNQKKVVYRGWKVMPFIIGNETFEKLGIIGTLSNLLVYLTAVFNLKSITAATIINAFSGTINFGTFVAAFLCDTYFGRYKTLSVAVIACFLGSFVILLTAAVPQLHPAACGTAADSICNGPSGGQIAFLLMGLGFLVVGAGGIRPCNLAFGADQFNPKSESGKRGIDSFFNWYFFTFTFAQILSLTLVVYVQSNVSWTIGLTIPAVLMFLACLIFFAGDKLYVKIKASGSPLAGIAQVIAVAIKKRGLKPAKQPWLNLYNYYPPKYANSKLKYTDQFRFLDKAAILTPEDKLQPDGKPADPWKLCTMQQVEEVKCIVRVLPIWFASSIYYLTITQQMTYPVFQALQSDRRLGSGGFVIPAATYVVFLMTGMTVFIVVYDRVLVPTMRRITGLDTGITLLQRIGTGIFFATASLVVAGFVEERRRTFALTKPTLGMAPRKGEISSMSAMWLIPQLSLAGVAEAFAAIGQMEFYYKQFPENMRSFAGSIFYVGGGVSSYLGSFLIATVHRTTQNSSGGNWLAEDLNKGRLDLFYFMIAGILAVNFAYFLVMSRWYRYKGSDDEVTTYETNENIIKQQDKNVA

[1] = substrate: C=C1C[C@]23C[C@@]1(O)CC[C@H]2[C@@]12C=C[C@H](O)[C@@](C)(C(=O)O1)[C@H]2[C@@H]3C(=O)O; test: uptake into Xenopus oocytes, UPLC/TOFMS; format: cell-based, Arabidopsis thaliana; conditions: pH 5.0, 17 °C, 24 h uptake, kulori-based buffer, 1-2,000 μM GA3

C=C1C[C@]23C[C@@]1(O)CC[C@H]2[C@@]12C=C[C@H](O)[C@@](C)(C(=O)O1)[C@H]2[C@@H]3C(=O)O [GA3]
uptake into Xenopus oocytes, UPLC/TOFMS (GTR2/NPF2.11): GTR2, a close homologue of GTR1, also transported GA3 into oocytes

B1: GTR1/NPF2.10 (Arabidopsis thaliana) (protein)
chain: MKSRVILNHRDRRDKNHNNNNTNHYTQVDTMERKPLEVEPSTTTTNTDVVDSFEEEQRKIVYRGWKVMPFIIGNETFEKLGIIGTLSNLLVYLTSVFNLKSYTAATIINAFSGTINFGTFIAAFLCDTYFGRYKTLSVAVIACFLGSFVILLTAAIPSLHPVACGNKISCEGPSVGQILFLLMGLGFLVVGAGGIRPCNLAFGADQFNPKSESGKKGINSFFNWYFFTFTFAQIISLTAVVYIQSNVSWTIGLIIPVALMFLACVIFFAGDRLYVKVKASGSPLAGIARVIAAAIKKRGLKPVKQPWVNLYNHIPSNYANTTLKYTDQFRFLDKAAIMTPEEKLNSDGTASDPWKLCTLQQVEEVKCIVRVIPIWFASTIYYLAITIQMTYPVFQALQSDRRLGSGGFRIPAATYVVFLMTGMTVFIIFYDRVLVPSLRRVTGLETGISLLQRIGAGFTFAIMSLLVSGFIEERRRNFALTKPTLGMAPRTGEISSMSALWLIPQLTLAGIAEAFAAIGQMEFYYKQFPENMKSFAGSIFYVGAGVSSYLASFLISTVHRTTAHSPSGNWLAEDLNKAKLDYFYFMLTGLMVVNMAYFLLMARWYRYKGGNDEDITEIETNEEETKQQQLQDKNSV
Km [1]: 301.25 ± 225.46 µM
